Assay results taken from US7022648B2, “Plant seeds treated with N,N′-substituted ureas” (Stoller Enterprises, Inc., priority 1996, dated 2006).
Values joined by “and” are separate entries in the source; they are usually repeats but may differ in a detail not shown here. Equal values may be shown once.

Assays:
Assay type in all cases: in vivo
Cotton [1] = test: Preliminary greenhouse pot test, seeds soaked in diformylurea solution, root and shoot mass; conditions: seed soak 24 h, 30 days
Description: (§1) In a preliminary experiment to determine the agricultural value of the N,N′-diformylurea prepared above, a concentrate was prepared by mixing 200 grams diformylurea and 200 grams formic acid, adjusting the ph to about 5.5 by the addition of potassium hydroxide and adding sufficient water to make 1 liter. […] Low, medium and high dilution aqueous solutions were prepared by diluting, respectively, 0.8 grams, 8.0 grams and 40.0 grams of the concentrate per liter of final solution. […] The foregoing solutions were used to coat corn, soybean, cotton and rice seeds prior to planting. Coating was achieved by soaking the seeds in the foregoing solutions for about 24 hours. Sufficient solution was used to keep the seeds immersed. Control seeds were soaked in water for the same time. Untreated or control seeds, together with seeds treated by the low, medium and high dilution solutions, were planted in 1 gallon greenhouse pots. Six pots were used for each dilution or control with five seeds planted per pot. The plants were thinned to two plants per pot after emergence. The plants were watered and fertilized as required. After 30 days the plants were harvested and the roots and shoots examined. The roots and shoots were weighed separately and the root/shoot ratio determined. The treated plants were generally characterized by both greater root mass and shoot mass when compared to the controls. The root/shoot ratio for most of the treated plants was greater than that for the controls.

Rice = test: as above; conditions: seed soak 24 h, 30 days
Description: as §1

Soybean = test: as above; conditions: seed soak 24 h, 30 days
Description: as §1

Corn = test: Greenhouse pot test, seed treatment 0.01 M diformylurea; conditions: seed treated, 24 h soak, 30 days
Description: (§2) Based upon the foregoing preliminary work, additional experiments to investigate the effect of diformylurea on other plant species was undertaken. These experiments were also designed to compare the effect of treating seeds as described above with foliar treatment. Wheat, corn and peanuts were selected for the next phase of this work. Diformylurea was prepared by reacting formic acid and urea at a molar ratio of 2:1 as described above. An aqueous solution containing diformylurea at a concentration of 0.01 M was prepared. For the seed treatment portion of the experiments, the seeds to be treated were soaked in the foregoing solution for about 24 hours before planting. The control seeds were again soaked in water for the same time. Both control and treated seeds were planted in 1 gallon greenhouse pots. Five seeds were planted in each pot. Each pot was thinned to two plants after germination. For the foliar treatment portion of the experiment, plants grown from untreated seeds were sprayed with a solution containing 0.01 M. diformylurea at the three leaf stage. All plants were watered and fertilized as required. Thirty days after planting, the plants were harvested and the roots and shoots examined. The mass of both the roots and shoots and the total mass of the plant in each pot were determined.

Peanuts = test: as above; conditions: seed treated, 24 h soak, 30 days
Description: as §2

Wheat = test: as above; conditions: seed treated, 24 h soak, 30 days
Description: as §2

Cotton [2] = test: Greenhouse pot test, effect of diformylurea concentration applied to seeds; conditions: seed treated, 24 h soak, 30 days; for Roots (gm), Average / Shoots (gm), Average / Total (gm), Average: average of samples
Description: Additional experiments were designed to study further the effect of the concentration of diformylurea applied to the seeds of several other crops. These experiments were conducted using cotton, rice, corn and soybeans. These experiments were similar to the preliminary experiments described above. The concentrate described above, containing both diformylurea and formate, was used to prepare solutions containing low, medium and high concentrations of diformylurea having, respectively, 0.001 M, 0.01 M and 0.05 M diformylurea. These solutions were used to treat the seeds of cotton, rice, corn and soybeans. Seeds of each of these crops were soaked in water or the prepared aqueous solutions of diformylurea for 24 hours before planting. Five seeds were planted in each of six, 1 gallon greenhouse pots. Pots were thinned to two plants after germination and the plants watered and fertilized as needed for 30 days. Thereafter, the plants were harvested and the mass of the roots, shoots and total mass determined.

Question: How did the “Root/Shoot Ratio” value (Cotton [1]; High dilution, 0.068 M) turn out when `O=CNC(=O)NC=O` [diformylurea, N,N′-diformylurea] was run?
Answer: 0.73

Question: And the “Roots (gm)” value (Cotton [1]; High dilution, 0.068 M)?
Answer: 5.07 gm

Question: And the “Shoots (gm)” value (Cotton [1]; High dilution, 0.068 M)?
Answer: 6.90 gm

Question: And the “Total (gm)” value (Cotton [1]; High dilution, 0.068 M)?
Answer: 11.97 gm

Question: And the “Root/Shoot Ratio” value (Cotton [1]; Low dilution, 0.0013 M)?
Answer: 1.46

Question: What about the “Roots (gm)” value (Cotton [1]; Low dilution, 0.0013 M) of the same compound?
Answer: 7.85 gm

Question: What about the “Shoots (gm)” value (Cotton [1]; Low dilution, 0.0013 M) of the same compound?
Answer: 5.38 gm

Question: What about the “Total (gm)” value (Cotton [1]; Low dilution, 0.0013 M) of the same compound?
Answer: 13.23 gm

Question: And the “Root/Shoot Ratio” value (Cotton [1]; Medium dilution, 0.013 M)?
Answer: 1.08

Question: And the “Roots (gm)” value (Cotton [1]; Medium dilution, 0.013 M)?
Answer: 4.50 gm

Question: And the “Shoots (gm)” value (Cotton [1]; Medium dilution, 0.013 M)?
Answer: 5.25 gm

Question: What about the “Total (gm)” value (Cotton [1]; Medium dilution, 0.013 M) of the same compound?
Answer: 9.75 gm

Question: What about the “crown roots on plants grown from treated seeds” value (Rice) of the same compound?
Answer: crown roots were noticed

Question: And the “Root/Shoot Ratio” value (Rice; High dilution, 0.068 M)?
Answer: 2.10

Question: And the “Roots (gm)” value (Rice; High dilution, 0.068 M)?
Answer: 0.82 gm

Question: And the “Shoots (gm)” value (Rice; High dilution, 0.068 M)?
Answer: 0.39 gm

Question: What about the “Total (gm)” value (Rice; High dilution, 0.068 M) of the same compound?
Answer: 1.21 gm

Question: And the “Root/Shoot Ratio” value (Rice; Low dilution, 0.0013 M)?
Answer: 1.78

Question: What about the “Roots (gm)” value (Rice; Low dilution, 0.0013 M) of the same compound?
Answer: 0.61 gm

Question: What about the “Shoots (gm)” value (Rice; Low dilution, 0.0013 M) of the same compound?
Answer: 0.34 gm

Question: And the “Total (gm)” value (Rice; Low dilution, 0.0013 M)?
Answer: 0.95 gm

Question: And the “Root/Shoot Ratio” value (Rice; Medium dilution, 0.013 M)?
Answer: 1.86

Question: And the “Roots (gm)” value (Rice; Medium dilution, 0.013 M)?
Answer: 3.07 gm

Question: And the “Shoots (gm)” value (Rice; Medium dilution, 0.013 M)?
Answer: 1.84 gm

Question: What about the “Total (gm)” value (Rice; Medium dilution, 0.013 M) of the same compound?
Answer: 4.91 gm

Question: What about the “Root/Shoot Ratio” value (Soybean; Low dilution, 0.0013 M) of the same compound?
Answer: 0.93

Question: And the “Roots (gm)” value (Soybean; Low dilution, 0.0013 M)?
Answer: 4.60 gm

Question: And the “Shoots (gm)” value (Soybean; Low dilution, 0.0013 M)?
Answer: 4.90 gm

Question: What about the “Total (gm)” value (Soybean; Low dilution, 0.0013 M) of the same compound?
Answer: 9.50 gm

Question: What about the “Root/Shoot Ratio” value (Soybean; Medium dilution, 0.013 M) of the same compound?
Answer: 1.20

Question: And the “Roots (gm)” value (Soybean; Medium dilution, 0.013 M)?
Answer: 4.90 gm

Question: And the “Shoots (gm)” value (Soybean; Medium dilution, 0.013 M)?
Answer: 4.10 gm

Question: What about the “Total (gm)” value (Soybean; Medium dilution, 0.013 M) of the same compound?
Answer: 9.00 gm

Question: What about the “Percent Change v. Control, Roots” value (Corn) of the same compound?
Answer: 30%

Question: What about the “Percent Change v. Control, Shoots” value (Corn) of the same compound?
Answer: 16%

Question: And the “Percent Change v. Control, Total” value (Corn)?
Answer: 24%

Question: What about the “Root/Shoot Ratio” value (Corn) of the same compound?
Answer: 1.80

Question: And the “Roots (gm), Average” value (Corn; average of samples)?
Answer: 58.92 gm

Question: What about the “Shoots (gm), Average” value (Corn; average of samples) of the same compound?
Answer: 32.73 gm

Question: And the “Total (gm), Average” value (Corn; average of samples)?
Answer: 91.65 gm

Question: What about the “Percent Change v. Control, Roots” value (Peanuts) of the same compound?
Answer: 17%

Question: And the “Percent Change v. Control, Shoots” value (Peanuts)?
Answer: 31%

Question: What about the “Percent Change v. Control, Total” value (Peanuts) of the same compound?
Answer: 24%

Question: What about the “Root/Shoot Ratio” value (Peanuts) of the same compound?
Answer: 0.98

Question: What about the “Roots (gm), Average” value (Peanuts; average of samples) of the same compound?
Answer: 19.93 gm

Question: What about the “Shoots (gm), Average” value (Peanuts; average of samples) of the same compound?
Answer: 20.30 gm

Question: What about the “Total (gm), Average” value (Peanuts; average of samples) of the same compound?
Answer: 40.23 gm

Question: What about the “Roots (gm)” value (Peanuts; single sample (pot)) of the same compound?
Answer: 20.11 gm and 22.04 gm and 21.60 gm and 16.74 gm and 16.46 gm and 22.65 gm

Question: What about the “Shoots (gm)” value (Peanuts; single sample (pot)) of the same compound?
Answer: 20.46 gm and 22.34 gm and 19.03 gm and 17.77 gm and 20.20 gm and 22.00 gm

Question: What about the “Total (gm)” value (Peanuts; single sample (pot)) of the same compound?
Answer: 40.57 gm and 44.38 gm and 40.63 gm and 34.51 gm and 36.66 gm and 44.65 gm

Question: And the “Percent Change v. Control, Roots” value (Wheat)?
Answer: 117%

Question: And the “Percent Change v. Control, Shoots” value (Wheat)?
Answer: 266%

Question: What about the “Percent Change v. Control, Total” value (Wheat) of the same compound?
Answer: 135%

Question: And the “Root/Shoot Ratio” value (Wheat)?
Answer: 4.39

Question: And the “Roots (gm), Average” value (Wheat; average of samples)?
Answer: 45.40 gm

Question: And the “Shoots (gm), Average” value (Wheat; average of samples)?
Answer: 10.35 gm

Question: What about the “Total (gm), Average” value (Wheat; average of samples) of the same compound?
Answer: 55.74 gm

Question: And the “Percent Change v. Control, Roots” value (Cotton [2]; 0.001 M)?
Answer: 159%

Question: And the “Percent Change v. Control, Shoots” value (Cotton [2]; 0.001 M)?
Answer: 18%

Question: And the “Percent Change v. Control, Total” value (Cotton [2]; 0.001 M)?
Answer: 74%

Question: And the “Root/Shoot Ratio” value (Cotton [2]; 0.001 M)?
Answer: 1.46

Question: What about the “Roots (gm), Average” value (Cotton [2]; 0.001 M) of the same compound?
Answer: 7.85 gm

Question: What about the “Shoots (gm), Average” value (Cotton [2]; 0.001 M) of the same compound?
Answer: 5.38 gm

Question: What about the “Total (gm), Average” value (Cotton [2]; 0.001 M) of the same compound?
Answer: 13.23 gm

Question: And the “Shoots (gm)” value (Cotton [2]; 0.001 M, single sample (pot))?
Answer: 4.80 gm and 4.40 gm and 6.20 gm and 5.50 gm and 5.70 gm

Question: What about the “Total (gm)” value (Cotton [2]; 0.001 M, single sample (pot)) of the same compound?
Answer: 8.60 gm and 12.40 gm and 16.20 gm and 14.70 gm and 12.60 gm and 14.90 gm

Question: What about the “Percent Change v. Control, Roots” value (Cotton [2]; 0.01 M) of the same compound?
Answer: 49%

Question: And the “Percent Change v. Control, Shoots” value (Cotton [2]; 0.01 M)?
Answer: 15%

Question: And the “Percent Change v. Control, Total” value (Cotton [2]; 0.01 M)?
Answer: 28%

Question: What about the “Root/Shoot Ratio” value (Cotton [2]; 0.01 M) of the same compound?
Answer: 0.86

Question: And the “Roots (gm), Average” value (Cotton [2]; 0.01 M)?
Answer: 4.50 gm

Question: And the “Shoots (gm), Average” value (Cotton [2]; 0.01 M)?
Answer: 5.25 gm

Question: What about the “Total (gm), Average” value (Cotton [2]; 0.01 M) of the same compound?
Answer: 9.75 gm

Question: And the “Shoots (gm)” value (Cotton [2]; 0.01 M, single sample (pot))?
Answer: 4.00 gm and 6.00 gm and 4.90 gm and 7.20 gm and 4.80 gm and 4.60 gm

Question: And the “Percent Change v. Control, Roots” value (Cotton [2]; 0.05 M)?
Answer: 67%

Question: And the “Percent Change v. Control, Shoots” value (Cotton [2]; 0.05 M)?
Answer: 29%

Question: And the “Percent Change v. Control, Total” value (Cotton [2]; 0.05 M)?
Answer: 44%

Question: And the “Root/Shoot Ratio” value (Cotton [2]; 0.05 M)?
Answer: 0.86

Question: What about the “Roots (gm), Average” value (Cotton [2]; 0.05 M) of the same compound?
Answer: 5.07 gm

Question: And the “Shoots (gm), Average” value (Cotton [2]; 0.05 M)?
Answer: 5.90 gm

Question: What about the “Total (gm), Average” value (Cotton [2]; 0.05 M) of the same compound?
Answer: 10.97 gm

Question: And the “Roots (gm)” value (Cotton [2]; 0.05 M, single sample (pot))?
Answer: 4.30 gm and 6.00 gm and 4.20 gm and 4.60 gm and 4.70 gm and 6.60 gm

Question: And the “Shoots (gm)” value (Cotton [2]; 0.05 M, single sample (pot))?
Answer: 4.70 gm and 5.00 gm and 6.40 gm and 5.40 gm and 6.90 gm and 7.00 gm

Question: And the “Total (gm)” value (Cotton [2]; 0.05 M, single sample (pot))?
Answer: 9.00 gm and 11.00 gm and 10.60 gm and 10.80 gm and 11.60 gm and 13.60 gm
